Measured values taken from patent US10758534B2 (Vertex Pharmaceuticals Incorporated, priority 2014, dated 2020).

Target: T1, F508del (Homo sapiens, UniProt P13569, DEL508-508)
T1 construct: expressed in transfected cells
Assay: Protocol 1: membrane potential optical assay (FLIPR III, voltage sensing dye), identification of potentiator compounds
Type: cell-based
Conditions: Table 3, compounds of Table 1
Procedure, shortened: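 Membrane potential in forskolin-activated, temperature-rescued F508del NIH 3T3 cells is followed with a voltage-sensing dye on FLIPR III. A chloride ion gradient created at the single addition step provides the driving force, after prior compound treatment.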

T1 sequence (P13569 with tags, fused parts or gaps DEL508-508): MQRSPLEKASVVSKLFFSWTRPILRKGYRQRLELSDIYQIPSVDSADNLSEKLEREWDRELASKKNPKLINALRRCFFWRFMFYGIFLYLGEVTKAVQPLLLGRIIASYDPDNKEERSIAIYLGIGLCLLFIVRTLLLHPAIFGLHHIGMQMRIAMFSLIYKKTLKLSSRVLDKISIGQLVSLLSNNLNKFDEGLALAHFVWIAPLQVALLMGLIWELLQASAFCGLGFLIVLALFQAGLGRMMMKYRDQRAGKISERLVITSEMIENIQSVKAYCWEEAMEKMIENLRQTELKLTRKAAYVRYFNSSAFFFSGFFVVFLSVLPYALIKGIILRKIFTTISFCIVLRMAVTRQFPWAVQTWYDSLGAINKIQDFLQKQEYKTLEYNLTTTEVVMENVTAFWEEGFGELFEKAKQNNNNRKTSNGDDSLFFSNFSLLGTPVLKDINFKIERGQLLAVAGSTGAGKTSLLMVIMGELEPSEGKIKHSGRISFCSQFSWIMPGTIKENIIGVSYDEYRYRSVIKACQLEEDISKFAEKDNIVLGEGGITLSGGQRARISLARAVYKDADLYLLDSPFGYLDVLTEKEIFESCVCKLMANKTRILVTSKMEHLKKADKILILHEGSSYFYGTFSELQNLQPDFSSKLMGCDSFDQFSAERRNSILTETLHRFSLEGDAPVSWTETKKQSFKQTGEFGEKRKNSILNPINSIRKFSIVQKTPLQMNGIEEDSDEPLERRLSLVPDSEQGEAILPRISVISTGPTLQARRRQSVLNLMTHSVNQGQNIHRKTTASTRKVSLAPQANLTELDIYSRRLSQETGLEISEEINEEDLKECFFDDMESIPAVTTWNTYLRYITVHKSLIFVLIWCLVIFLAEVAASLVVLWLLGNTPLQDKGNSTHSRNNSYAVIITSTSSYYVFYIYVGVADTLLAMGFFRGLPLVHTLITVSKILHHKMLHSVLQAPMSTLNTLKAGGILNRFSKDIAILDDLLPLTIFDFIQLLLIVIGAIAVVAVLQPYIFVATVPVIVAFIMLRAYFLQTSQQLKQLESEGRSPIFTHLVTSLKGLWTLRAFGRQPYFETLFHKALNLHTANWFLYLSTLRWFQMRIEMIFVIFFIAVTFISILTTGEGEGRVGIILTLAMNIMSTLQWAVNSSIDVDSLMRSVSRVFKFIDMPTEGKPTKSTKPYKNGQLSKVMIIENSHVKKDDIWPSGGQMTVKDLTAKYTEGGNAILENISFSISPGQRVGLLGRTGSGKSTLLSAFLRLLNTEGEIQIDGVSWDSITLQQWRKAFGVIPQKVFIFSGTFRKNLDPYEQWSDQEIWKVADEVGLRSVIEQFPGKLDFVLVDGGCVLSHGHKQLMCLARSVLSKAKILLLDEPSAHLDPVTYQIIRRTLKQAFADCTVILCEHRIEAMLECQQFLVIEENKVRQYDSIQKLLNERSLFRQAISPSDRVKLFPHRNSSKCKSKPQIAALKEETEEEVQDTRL

| EC30 | SMILES |
| --- | --- |
| +++ (“+++” means <3 uM) | CC1CN(c2ncccc2C(=O)NS(=O)(=O)c2cccc(OCCc3ccc(F)cc3)n2)C(C)(C)C1 (stereo not drawn) [Compound 1704, N—[[6-[2-(4-fluorophenyl)ethoxy]-2-pyridyl]sulfonyl]-2-(2,2,4-trimethylpyrrolidin-1-yl)pyridine-3-carboxamide] |
| +++ (“+++” means <3 uM) | COc1ccc(-c2ccc(C(=O)NS(=O)(=O)c3cccnc3N)c(N3C[C@@H](C)CC3(C)C)n2)c(OC)c1 [Compound 1705, N-[(2-amino-3-pyridyl)sulfonyl]-6-(2,4-dimethoxyphenyl)-2-[(4S)-2,2,4-trimethylpyrrolidin-1-yl]pyridine-3-carboxamide] |
| ++ (“++” means between 3 uM and 10 uM) | C[C@@H]1CN(c2nc(-c3ccccc3CO)ccc2C(=O)NS(=O)(=O)c2cccnc2N)C(C)(C)C1 [Compound 1706, N-[(2-amino-3-pyridyl)sulfonyl]-6-[2-(hydroxymethyl)phenyl]-2-[(4S)-2,2,4-trimethylpyrrolidin-1-yl]pyridine-3-carboxamide] |
| ++ (“++” means between 3 uM and 10 uM) | COc1ccc(-c2ccc(C(=O)NS(=O)(=O)c3cccnc3N)c(N3C[C@@H](C)CC3(C)C)n2)c(CO)c1 [Compound 1707, N-[(2-amino-3-pyridyl)sulfonyl]-6-[2-(hydroxymethyl)-4-methoxy-phenyl]-2-[(4S)-2,2,4-trimethylpyrrolidin-1-yl]pyridine-3-carboxamide] |
| +++ (“+++” means <3 uM) | CC1CN(c2ncccc2C(=O)NS(=O)(=O)c2cccc(N3CCC(c4ccccc4)C3)n2)C(C)(C)C1 (stereo not drawn) [Compound 1708, N—[[6-(3-phenylpyrrolidin-1-yl)-2-pyridyl]sulfonyl]-2-(2,2,4-trimethylpyrrolidin-1-yl)pyridine-3-carboxamide] |
| +++ (“+++” means <3 uM) | CC(C)Oc1ccn(-c2ccc(C(=O)NS(=O)(=O)c3cccc(N)n3)c(N3C[C@@H](C)CC3(C)C)n2)n1 [Compound 1709, N-[(6-amino-2-pyridyl)sulfonyl]-6-(3-isopropoxypyrazol-1-yl)-2-[(4S)-2,2,4-trimethylpyrrolidin-1-yl]pyridine-3-carboxamide] |
| +++ (“+++” means <3 uM) | C[C@@H]1CN(c2nc([C@H]3CC[C@H](C(F)(F)F)CC3)ccc2C(=O)NS(=O)(=O)c2ccc[nH]c2=O)C(C)(C)C1 [Compound 1710, N-[(2-oxo-1H-pyridin-3-yl)sulfonyl]-6-[4-(trifluoromethyl)cyclohexyl]-2-[(4S)-2,2,4-trimethylpyrrolidin-1-yl]pyridine-3-carboxamide] |
| +++ (“+++” means <3 uM) | CCCN(C)c1cccc(S(=O)(=O)NC(=O)c2cccnc2N2CC(C)CC2(C)C)n1 (stereo not drawn) [Compound 1711, N—[[6-[methyl(propyl)amino]-2-pyridyl]sulfonyl]-2-(2,2,4-trimethylpyrrolidin-1-yl)pyridine-3-carboxamide] |
| +++ (“+++” means <3 uM) | C[C@@H]1CN(c2nc(-c3ccc(O)cc3)ccc2C(=O)NS(=O)(=O)c2cccnc2N)C(C)(C)C1 [Compound 1712, N-[(2-amino-3-pyridyl)sulfonyl]-6-(4-hydroxyphenyl)-2-[(4S)-2,2,4-trimethylpyrrolidin-1-yl]pyridine-3-carboxamide] |
| +++ (“+++” means <3 uM) | Cc1cccc(-c2ccc(C(=O)NS(=O)(=O)c3cccnc3N)c(N3C[C@@H](C)CC3(C)C)n2)c1C [Compound 1713, N-[(2-amino-3-pyridyl)sulfonyl]-6-(2,3-dimethylphenyl)-2-[(4S)-2,2,4-trimethylpyrrolidin-1-yl]pyridine-3-carboxamide] |
| ++ (“++” means between 3 uM and 10 uM) | C[C@@H]1CN(c2nc(-c3cnc4[nH]ccc4c3)ccc2C(=O)NS(=O)(=O)c2cccnc2N)C(C)(C)C1 [Compound 1714, N-[(2-amino-3-pyridyl)sulfonyl]-6-(1H-pyrrolo[2,3-b]pyridin-5-yl)-2-[(4S)-2,2,4-trimethylpyrrolidin-1-yl]pyridine-3-carboxamide] |
| +++ (“+++” means <3 uM) | CCOCCOCCOc1ncc(-c2ccc(C(=O)NS(=O)(=O)c3cccc(N)n3)c(N3C[C@@H](C)CC3(C)C)n2)cc1C [Compound 1715, N-[(6-amino-2-pyridyl)sulfonyl]-6-[6-[2-(2-ethoxyethoxy)ethoxy]-5-methyl-3-pyridyl]-2-[(4S)-2,2,4-trimethylpyrrolidin-1-yl]pyridine-3-carboxamide] |
| ++ (“++” means between 3 uM and 10 uM) | C[C@@H]1CN(c2nc(-c3cc(F)cc(F)c3)ccc2C(=O)NS(=O)(=O)N2CC[C@H](N)C2)C(C)(C)C1 [Compound 1716, N-[(3S)-3-aminopyrrolidin-1-yl]sulfonyl-6-(3,5-difluorophenyl)-2-[(4S)-2,2,4-trimethylpyrrolidin-1-yl]pyridine-3-carboxamide] |
| +++ (“+++” means <3 uM) | COc1ccc(CN(C)c2cccc(S(=O)(=O)NC(=O)c3cccnc3N3CC(C)CC3(C)C)n2)cc1 (stereo not drawn) [Compound 1717, N—[[6-[(4-methoxyphenyl)methyl-methyl-amino]-2-pyridyl]sulfonyl]-2-(2,2,4-trimethylpyrrolidin-1-yl)pyridine-3-carboxamide] |
| +++ (“+++” means <3 uM) | COc1cc(C)cc(Oc2cccc(S(=O)(=O)NC(=O)c3cccnc3N3CC(C)CC3(C)C)n2)c1 (stereo not drawn) [Compound 1719, N—[[6-(3-methoxy-5-methyl-phenoxy)-2-pyridyl]sulfonyl]-2-(2,2,4-trimethylpyrrolidin-1-yl)pyridine-3-carboxamide] |
| +++ (“+++” means <3 uM) | CC1CN(c2ncccc2C(=O)NS(=O)(=O)c2cccc(Oc3ccccc3C#N)n2)C(C)(C)C1 (stereo not drawn) [Compound 1720, N—[[6-(2-cyanophenoxy)-2-pyridyl]sulfonyl]-2-(2,2,4-trimethylpyrrolidin-1-yl)pyridine-3-carboxamide] |
| +++ (“+++” means <3 uM) | CC1CN(c2ncc(-c3cc(Cl)cc(Cl)c3)cc2C(=O)NS(=O)(=O)c2cccc(N)n2)C(C)(C)C1 (stereo not drawn) [Compound 1721, N-[(6-amino-2-pyridyl)sulfonyl]-5-(3,5-dichlorophenyl)-2-(2,2,4-trimethylpyrrolidin-1-yl)pyridine-3-carboxamide] |
| +++ (“+++” means <3 uM) | CC1CN(c2ncccc2C(=O)NS(=O)(=O)c2cccc(Nc3ccc(C(C)C)cc3)n2)C(C)(C)C1 (stereo not drawn) [Compound 1722, N—[[6-(4-isopropylanilino)-2-pyridyl]sulfonyl]-2-(2,2,4-trimethylpyrrolidin-1-yl)pyridine-3-carboxamide] |
| +++ (“+++” means <3 uM) | CC(C)COc1cc(F)cc(-c2ccc(C(=O)NS(=O)(=O)c3cccc(N)n3)c(N3CC[C@H](C)[C@H](C)C3)n2)c1 [Compound 1724] |

| SMILES | EC30 |
| --- | --- |
| CC1CN(c2ncccc2C(=O)NS(=O)(=O)c2cccc(OC(C)(C)C)n2)C(C)(C)C1 (stereo not drawn) [Compound 1718, N-[(6-tert-butoxy-2-pyridyl)sulfonyl]-2-(2,2,4-trimethylpyrrolidin-1-yl)pyridine-3-carboxamide] | +++ (“+++” means <3 uM) |
| CC(C)COc1cc(F)cc(-c2ccc(C(=O)NS(=O)(=O)c3cccc(N)n3)c(NCC3(CC(C)(C)O)CC3)n2)c1 [Compound 1723, N-[(6-amino-2-pyridyl)sulfonyl]-6-(3-fluoro-5-isobutoxy-phenyl)-2-[[1-(2-hydroxy-2-methyl-propyl)cyclopropyl]methylamino]pyridine-3-carboxamide] | +++ (“+++” means <3 uM) |
